Measured values published in patent publication US10934523B2, “Method for culture of stem cell” (RIKEN, priority 2008, dated 2021).
Entries after “also recorded” stand apart in the source; their conditions may differ. Where two headings read alike, the source gives them in different places.

How the values were obtained:
Rx-GFP ES cells [1] = assay: Differentiation into hypothalamic progenitor cells by SFEBq/gfCDM, percentage of Rx-GFP+ cells by FACS on day 7; format: cell-based, mouse; conditions: for Rx-GFP positivity rate recovered in the presence of insulin: LY294002 5 μM, Akt inhibitor VIII 2 μM
Procedure: Differentiation culture was performed under the same culturing conditions as Example 13 for 7 days. For analyzing the differentiated cells, an antibody against the Rx protein, which is a hypothalamic and retinal progenitor cell marker, was used. In hypothalamic progenitor cells, in addition to Rx, a protein called nestin is expressed, whereas in retinal progenitor cells, only Rx is expressed but nestin is not expressed, so that hypothalamic progenitor cells were identified by a fluorescent immunostaining method with the co-expression of Rx and nestin as an index.
Furthermore, EB5 cells wherein GFP was knocked in at the Rx gene locus (hereinafter, Rx-GFP ES cells) were prepared, and the expression of Rx-GFP was also analyzed by FACS.
(§1) Differentiation culture was performed under the same culturing conditions as Example 14 for 7 days, and the influence of the addition of insulin to the medium on the differentiation of hypothalamic progenitor cells from ES cells was analyzed by FACS using Rx-GFP ES cells. The intracellular signal transduction of insulin is involved by roughly two pathways (MAPK pathway and PI3K-Akt pathway). […] LY294002, Akt inhibitor VIII, PD98059 or DMSO (vehicle control) was added on day 2 of cultivation.

[2] = test system: Mouse ES cells (EB5 and Sox1-GFP ES cells); assay: Nerve differentiation of mouse ES cells by the SFEBq/gfCDM method; format: cell-based; conditions: 15 μg/ml in differentiation medium
Procedure: To induce the differentiation of nerves by suspension culture, ES cells were mono-dispersed using 0.25% trypsin-EDTA (Invitrogen), suspended in 150 μl of a differentiation medium to obtain a cell density of 3000 cells per well on a non-cell-adhesive 96-well culture plate (Lipidure-Coat, NOF Corp.), and incubated at 37° C., 5% CO2 for 5 days.
The differentiation medium used was Iscove's Modified Dulbecco's Medium (IMDM)/Hams F12 1:1 (Invitrogen) supplemented with 1× Chemically-defined lipid concentrate (Invitrogen), monothioglycerol (450 μM; Sigma) and bovine serum albumin (a recrystallization-purified product of >99% purity; Sigma).
Differentiation into nerve progenitor cells was analyzed as described previously (Watanabe et al., Nature Neuroscience, 2005) by FACS using Sox1-GFP ES cells that emit fluorescence when differentiated into nerves. The FACS was performed using FACSAria (Beckton Dickenson) and its data were analyzed using FACSDiva software. Nerve differentiation was also analyzed by a fluorescent immunostaining method using EB5 cells.

[3] = test system: aggregate masses derived from a mouse ES cell; assay: Ca++ imaging (fluo4-AM) of cerebral neurons produced by the SFEBq method; format: cell-based
Procedure: To confirm the activities and network formation of cerebral neurons produced by the SFEBq method, an analysis was performed by a Ca^++ imaging method using fluo4-AM. The method of examination was as described in the literature (Ikegaya et al, 2005, Neurosci. Res., 52, 132-138).
Aggregate masses derived from a mouse ES cell cultured by the method described in Example 1 for 18 days were further cultured on the Transwell culture insert (Corning) using a DMEM/F12 medium supplemented with N2 for 7 days (FIG. 3A, view A). Ca^++ imaging was performed at room temperature using an artificial cerebrospinal fluid.

SFEBq culture product = assay: qPCR of marker genes in the SFEBq culture product with insulin; format: cell-based, mouse; conditions: insulin treatment
Procedure: The expression of a marker gene is analyzed by, for example, performing quantitative PCR using the 7500 Fast Real-Time PCR System (Applied Biosystems) in accordance with the manufacturer's instructions, and normalizing the obtained data by the expression of GAPDH. The method of quantitative PCR is obvious to those skilled in the art. Alternatively, cells may be manipulated to allow the desired marker gene to be expressed as a fusion protein of a marker gene product and GFP or the like (knocking-in). It is also possible to detect the expression of the protein using an antibody specific for a marker gene product.
as §1

Rx-GFP ES cells [4] = assay: Dorsal/ventral hypothalamic marker expression in Rx-GFP-positive re-aggregate masses (fluorescent immunostaining, day 13); format: cell-based, mouse
Procedure: The cells of each fraction were dispensed to a non-cell-adhesive 96-well culture plate at 2500-5000 cells per well, and further cultured using a DMEM/F12 medium supplemented with 7 g/L glucose, 10% KSR and penicillin/streptomycin for 3 days. […] Three days later, half the medium was replaced with a DFNB medium (a DMEM/F12 supplemented with 7 g/l of glucose, 1×N2 supplement and 1×B27 supplement) supplemented with 10 ng/ml of CNTF, and the cells were further cultured for 3 days.
After cultivation for a total of 13 days, the re-aggregate masses were prepared as frozen sections, and the properties of the differentiated cells were analyzed by a fluorescent immunostaining method. For evaluating the effect of Shh, 30 nM Shh was added from 4 days after the start of cultivation.

Human ES cells (KhES #1) = assay: Hypothalamus gene marker expression in human ES cells by modified SFEBq/gfCDM (quantitative PCR, day 31); format: cell-based; conditions: insulin 7 μg/ml, 31 days
Bf1/Venus-mES cells [5] = assay: Layer-specific neuron differentiation of FACS-sorted, re-aggregated SFEBq cerebral progenitors after Notch inhibition (fluorescent immunostaining); format: cell-based, mouse; conditions: further 6 days culture
Procedure: After Bf1/Venus-mES cells were cultured for differentiation for different lengths of periods (9 days or 12 days), the resulting Venus-positive cells were separated by FACS, and rapid re-aggregation (5000 cells/well) was performed using a non-cell-adhesive 96-well culture plate. Starting on the following day, rapid induction of differentiation into neurons was performed by a treatment with the Notch inhibitor DAPT (10 μM; known to promote neuron differentiation; Nelson et al, 2007); after further differentiation culture for 6 days, layer-specific markers were analyzed by a fluorescent immunostaining method (FIG. 6, view A).

Bf1/Venus-mES cells [6] = assay: Cerebral site-specific differentiation of re-aggregated SFEBq cerebral progenitors with secreted pattern formation factors (fluorescent immunostaining); format: cell-based, mouse; conditions: BMP4 0.5 ng/ml
Procedure: Bf1/Venus-mES cells were cultured for differentiation by the SFEBq method for 7 days, after which the resulting Venus-positive cells were separated by FACS, and rapid re-aggregation (5000 cells/well) was performed using a non-cell-adhesive 96-well culture plate. Secreted pattern formation factors such as Fgf 8b (50 ng/ml), the Fgf receptor inhibitor FGFR3-Fc (50 ng/ml), Wnt3a (20 ng/ml), and BMP4 (0.5 ng/ml) were added thereto, and the cells were cultured for 3 to 12 days. The expression of cerebral part-specific markers was analyzed by a fluorescent immunostain method (FIG. 7A, view A).

[7] = room temperature, artificial cerebrospinal fluid
[8] = 7 μg/ml insulin, added on day 2
[9] = 10 μM treatment after 12 days of differentiation culture

With O=[Se](O)O [sodium selenite] the “percentage of Rx-GFP” value (Rx-GFP ES cells [1]; concentration in differentiation medium increased from 0.017 mg/L to 0.025 mg/L, control 50-70%) was “about 80%”.

For “human apo-transferrin: human apo-transferrin (Sigma), medium additive”, the “influence of addition or non-addition on the differentiation results” value [2] was “did not influence”.

For NC1=N[C@H](O)[C@H]2[C@H]3O[C@]4(O)O[C@@H]([C@@H](O)[C@@]2(N1)[C@@H]4O)[C@]3(O)CO [tetrodotoxin], the “Ca++ elevations synchronized or not synchronized with surrounding cells” value [3] was “inhibited” and the “repeated synchronized Ca++ elevations over a long distance (Ca++ oscillation)” value [3] was “inhibited”.

In the case of “insulin: insulin added to serum-free medium”, the “expression of a caudal marker” value (SFEBq culture product) is reported as “induced moderately”, the “expression of the most rostral CNS marker” value (SFEBq culture product) is reported as “suppressive effect” and the Rx-GFP positivity rate (Rx-GFP ES cells [1]; 7 μg/ml insulin) is reported as “less than 5%”. For the same molecule, the “expression of Rx-GFP, time-window analysis” value (Rx-GFP ES cells [1]; insulin 7 μg/ml added to gfCDM on day 5 or before) was “suppressed”, the “effect on Rx-GFP+%, time-window analysis” value (Rx-GFP ES cells [1]; insulin 7 μg/ml present after day 4) was “decreased substantially” and the “effect on Rx-GFP+%, time-window analysis” value (Rx-GFP ES cells [1]; insulin 7 μg/ml present during the first 3 days) was “almost no inhibitory effect”.

For NC(=O)CC[C@H](N)C(=O)O [glutamine], the “Ca++ elevations synchronized or not synchronized with surrounding cells” value [3, 7] was “enhanced”.

CC1=C2C[C@H]3[C@@H](CC=C4C[C@@H](O)CC[C@@]43C)[C@@H]2CC[C@]12O[C@@H]1C[C@H](C)CN[C@H]1[C@H]2C [Cyclopamine, 11-Deoxojervine] was tested, and the “expression of dorsal/ventral hypothalamus markers compared with the Shh treatment” value (Rx-GFP ES cells [4]) was “reverse result”.

In the case of Cl.O=c1cc(N2CCOCC2)oc2c(-c3ccccc3)cccc12 [LY294002, 2-(4-morpholinyl)-8-phenyl-1(4H)-benzopyran-4-one hydrochloride], the “Rx-GFP positivity rate recovered in the presence of insulin” value (Rx-GFP ES cells [1]; [8]) is reported as “about 20%”.

O=c1[nH]c2ccccc2n1C1CCN(Cc2ccc(-c3nc4cc5[nH]cnc5cc4nc3-c3ccccc3)cc2)CC1 [Akt inhibitor VIII, 1,3-Dihydro-1-(1-((4-(6-phenyl-1H-imidazo[4,5-g]quinoxalin-7-yl)phenyl)methyl)-4-piperidinyl)-2H-benzimidazol-2-one] was tested, and the “Rx expression without addition of Akt inhibitor VIII, relative to culture with 2 μM from day 9” value (Human ES cells (KhES #1)) was 50%, the “Vax1 expression without addition of Akt inhibitor VIII, relative to culture with 2 μM from day 9” value (Human ES cells (KhES #1)) was 25% and the “Rx-GFP positivity rate recovered in the presence of insulin” value (Rx-GFP ES cells [1]; [8]) was about 28%.

In the case of N#Cc1cc2[nH]c(=O)c(=O)[nH]c2cc1[N+](=O)[O-] [CNQX], the “repeated synchronized Ca++ elevations over a long distance (Ca++ oscillation)” value [3, 7] is reported as “inhibited”.

C[C@H](NC(=O)Cc1cc(F)cc(F)c1)C(=O)N[C@H](C(=O)OC(C)(C)C)c1ccccc1 [DAFT] was tested, and the “cells differentiated into Reelin-positive Cajal-Retzius cells” value (Bf1/Venus-mES cells [5]; 10 μM treatment after 9 days of differentiation culture) was “more than 50%”, the Reelin-positive cells (Bf1/Venus-mES cells [5]; [9]) was “less than 10%” and the “cells differentiated into Ctip2/Emx1-positive cerebral cortical neurons specific for the 5th layer” value (Bf1/Venus-mES cells [5]; [9]) was “more than 60%”.

For c1ccc2c(Oc3nc(Nc4ccc(N5CCOCC5)cc4)c4ncn(C5CCCCC5)c4n3)cccc2c1 [Purmorphamine, 2-(1-Naphthoxy)-6-(4-morpholinoanilino)-9-cyclohexylpurine], the “expression of dorsal/ventral hypothalamus markers compared with the Shh treatment” value (Rx-GFP ES cells [4]; Cyclopamine treatment, Purmorphamine 0.5 μM in place of Shh) was “same effects as with Shh”.

In the case of COc1cccc(-c2cc(=O)c3ccccc3o2)c1N [PD98059], the “antagonism of the inhibitory effect of insulin on differentiation into hypothalamic progenitor cells” value (Rx-GFP ES cells [1]; 7 μg/ml insulin, PD98059 0.5-10 μM, added on day 2) is reported as “did not antagonize; also recorded: not noted”.

B1: BMP4: protein belonging to the BMP family, BMP signal promoter (protein, UniProt P12644 293-408, looked up)
Bone morphogenetic protein 4: SPKHHSQRARKKNKNCRRHSLYVDFSDVGWNDWIVAPPGYQAFYCHGDCPFPLADHLNSTNHAIVQTLVNSVNSSIPKACCVPTELSAISMLYLDEYDKVVLKNYQEMVVEGCGCR
With B1 the “differentiation of choroidal tissue (TTR-positive)” value (Bf1/Venus-mES cells [6]) was “noted”.

B2: Wnt3a: protein belonging to the Wnt family, Wnt signal promoter (protein, UniProt P56704 19-352, looked up)
Protein Wnt-3a: SYPIWWSLAVGPQYSSLGSQPILCASIPGLVPKQLRFCRNYVEIMPSVAEGIKIGIQECQHQFRGRRWNCTTVHDSLAIFGPVLDKATRESAFVHAIASAGVAFAVTRSCAEGTAAICGCSSRHQGSPGKGWKWGGCSEDIEFGGMVSREFADARENRPDARSAMNRHNNEAGRQAIASHMHLKCKCHGLSGSCEVKTCWWSQPDFRAIGDFLKDKYDSASEMVVEKHRESRGWVETLRPRYTYFKVPTERDLVYYEASPNFCEPNPETGSFGTRDRTCNVSSHGIDGCDLLCCGRGHNARAERRREKCRCVFHWCCYVSCQECTRVYDVHTCK
B2 was tested, and the “cells expressing Otx2 and Lmx1a (hem area markers)” value (Bf1/Venus-mES cells [6]; Wnt3a 20 ng/ml) was 2-30%.
